Literature values in patent publication US8545863B2, “Insecticides for agricultural and horticultural crops” (Globachem, priority 2009, dated 2013).

System: apple scab (V. inequalis)

Row | SMILES | decreasing fruit and leaf scab (apple scab) | concentration preventing germination of spores and killing the spore sacks (asci) (apple scab (V. inequalis)) [g/L]
1 | O=C([O-])O.[K+] [Potassium bicarbonate, potassium bicarbonate] | effective | 
2 | [Ca+2].[OH-].[OH-] [calcium hydroxide] |  | 4.3
